The results in this text go back to patent US12274703B2, “Compositions and methods of treatment for neurological disorders comprising a dementia” (Gliapharm SA, priority 2017, dated 2025).

The first assay concerns primary astrocytes. Kind of assay: High throughput screening for lactate secretion: acidification of extracellular medium (SNARF5). The note with it: Mus musculus, Astrocyte, 1.5 h; Appendix I; primary screening, 10 uM, 90 min; relative to positive control; read-out: Score. The format is cell-based, mouse. As to the method:
Primary cultures of cerebrocortical astrocytes were obtained from 1-2-day-old OF1 mouse pups (Charles River Laboratories). Briefly, cortices were isolated and minced in small pieces under a dissecting microscope. The cells were incubated for 30 min at 37° C. in a solution containing 20 U/ml of papain enzyme (Worthington Biochemical), L-cysteine 1 mM (Sigma), and 10 kU/ml DNase I (Worthington Biochemical) for an enzymatic dissociation. Papain activity was stopped by the addition of fetal calf serum (FCS) to the solution, and a single-cell suspension was then obtained by mechanical dissociation, which consisted in cells trituration in a DMEM (D7777, Sigma-Aldrich) medium (supplemented with 44 mm NaHCO3, and 10 ml/L antibiotic/antimycotic solution) containing 10% FCS. The cells were seeded at an average density of 6×10^4 cells/cm^2 in poly-D-lysine-coated 96, 12 or 6-well culture plates, depending on their use, and incubated at 37° C. in a humidified atmosphere containing 5% CO2/95% air. Culture medium was renewed twice per week. Cells were stimulated and harvested between DIV14 and DIV17, when confluence and cell growth were optimal.
Secretion of lactate in a high-throughput screening (HTS) fashion was measured indirectly through the acidification of extracellular medium. To this end, primary astrocytes grown in 96-well plates for 17 days were stimulated with the compounds as listed herein.
After washing the cells twice with stimulation medium (DMEM (D5030, Sigma), 3 mM NaHCO3 and 5 mM Glucose) at 37° C., cells were stimulated with the compounds at a final concentration of 10 uM (1% DMSO final) in 50 ul per well of stimulation medium supplemented with 10 uM of the extracellular pH sensor SNARF-5F %-(AND-6)-CAR (Life Technologies Corporation). Each compound was tested in two different plates for duplicates.
After 90 min stimulation, fluorescence was read at exc. (excitation) 480 nm/emm. (emission) 580 nm and at exc 480 nm/emm. 630 nm. The ratio of fluorescence between 630 nm and 580 emission values, which represents extracellular pH, was calculated.
In each plate, 8 wells were used for negative controls (DMSO) and 8 wells were used for positive controls (CCCP 2 uM in DMSO). Z prime values were calculated for each of the plates tested and values <0 were discarded.
The average and SD of compounds' values tested in duplicates were calculated, and compound was noted as HIT when the difference between compound's average and negative control's average was greater than three times the sum of compound's SD and negative controls' SD. Only scores greater than 40% were considered as lead hits for the CDC54K library; for the remaining libraries, all hits were considered. Scores are calculated as the % of activity compared to the positive control in each plate (which is 100%).
Primary screening hits were cherry picked on new plates and confirmed for SNARF5 effect, after having discarded those compounds that are fluorescent (exc. 480 nm/emm. 580 nm or 630 nm) before stimulation. Extracellular medium was next analyzed for extracellular lactate quantification for secondary screening.
Identification of lactate-enhancing drugs with high throughput screening (HTS) experiments on astrocytes primary cultures using extracellular pH dye (SNARF5F 5-(and 6)-carboxylic acid) for 90 min. The procedure is described in Material and Methods (2. Cell culture, 2.1. HTS for lactate secretion and 2.2. Extracellular lactate quantification).
The procedure was performed as follows: • Primary screening: acidification of the extracellular medium • Primary screening confirmation: acidification of the extracellular medium, removal of compounds with fluorescent activity at exc. 480 nm/emm. 580 nm or 630 nm. • Secondary screening: dosage of extracellular lactate
As for `Cc1ccc(S(=O)(=O)N2CCSC2c2ccc([N+](=O)[O-])cc2)c(C)c1` (centres unmarked) [T5464782], the Emax at 10 µM turned out to be 27.7%. Same read-out and setting: as for `O=C(c1cccc(F)c1)N1CCC(Nc2ncnc3c2CCC3)CC1` [T636-1601], the figure is 0%; as for `FC(F)(F)c1cccc(CNc2ncnc3sccc23)c1` [T5346988], 99.6%.

`O=C(c1noc2ccc(S(=O)(=O)Nc3cccc(F)c3)cc12)N1CCCC1` [L995-0058]: the Emax at 10 µM amounted to 42.3%. The same measure, in the same setting: for `Cc1cccc([N+]2=C3CCCCN3C(O)(c3ccc(F)cc3)C2)c1C` (centres unmarked) [K404-0685] the value was 67.9%; for `Clc1ccc(Nc2ncnc3sccc23)cc1` [T5393195], 36.9%; for `COc1ccccc1[N+]1=C2CCCCN2C(O)(c2ccc(F)cc2)C1` (centres unmarked) [F0524-0338], 73.6%. The same measure, in the same setting: as for `Cc1ccsc1C(=O)NC1CCN(c2ncnc3c2CCC3)C1` (centres unmarked) [T636-1114], the figure is 72.5%; as for `CCOc1ccc(-c2cc3n(n2)CCCN(C(=O)c2cccnc2)C3)cc1` [T200-0707], 16.7%; as for `COc1ccc(CN2CCN(c3ncnc4c3CCC4)CC2)cc1OC` [T636-2007], 102%.

Regarding `COc1ccc(C2(O)C[N+](c3ccccc3C)=C3CCCCN32)cc1` (centres unmarked) [F0524-0507], the Emax at 10 µM came out at 61.2%. Same read-out and setting: as for `COc1ccc(C2(O)C[N+](c3cc(C)ccc3C)=C3SCCCN32)c(F)c1` (centres unmarked) [K404-0183], the figure is 89.6%; as for `Cc1nc(N2CCCC(C(=O)NCc3cccnc3)C2)c2c(C)c(C)oc2n1` (centres unmarked) [F228-0856], 18.6%. For `Cc1nc(-c2cccc(NS(=O)(=O)c3ccc(N4CCCC4=O)cc3)c2)cs1` [T5599698], the Emax at 10 µM worked out at 85.6%. In the case of `OC1(c2ccccc2)C[N+](c2ccc(Cl)cc2)=C2CCCCN21` (centres unmarked) [F0524-0488], the Emax at 10 µM was 51.2%. Same read-out and setting: for `Cn1nccc1C(=O)N1CCC(Nc2ncnc3c2CCC3)C1` (centres unmarked) [T636-2425] the value was 22%; for `CN(C)Cc1cccc(CNc2ncnc3sccc23)c1` [T6783542], 85.7%.

As for `Fc1ccc(Nc2nc(N3CCOCC3)c3ccccc3n2)cc1` [T0508-5193], the Emax at 10 µM was found to be 19.5%. On the same count and under the same terms, as for `Cc1cccc([N+]2=C3CCCCCN3C(O)(c3cccc([N+](=O)O)c3)C2)c1` (centres unmarked) [K404-0915], the figure is 0%; as for `Cc1ccc(CNS(=O)(=O)c2cc(-c3noc(C4CCCC4)n3)cs2)cc1` [L287-1641], 77.2%; as for `Cc1ccc(CNS(=O)(=O)c2ccc3onc(C(=O)N4CCCCC4)c3c2)cc1` [L995-0386], 18.8%.

As for `COc1ccc(C2SCCN2S(=O)(=O)c2cccc(C)c2)cc1OC` (centres unmarked) [T5463658], the Emax at 10 µM came out at 27.2%.

Turning to `COc1ccc(C2(O)C[N+](c3cc(C)ccc3C)=C3CCCCCN32)cc1OC` (centres unmarked) [K404-0852], the Emax at 10 µM was 0%.

In the case of `CCc1ccc(C2(O)C[N+](c3ccccc3OC)=C3CCCCN32)cc1` (centres unmarked) [K404-0672], the Emax at 10 µM came to 125%.

As for `Cc1cccc([N+]2=C3CCCCCN3C(O)(c3ccc([N+](=O)[O-])cc3)C2)c1` (centres unmarked) [K404-0914], the Emax at 10 µM is 0%. Consider `CCc1ccc(S(=O)(=O)N2CCSC2c2ccc(OC)c(OC)c2)cc1` (centres unmarked) [4052-4304], for which the Emax at 10 µM amounted to 49.4%. The same measure, in the same setting: as for `Cc1ccccc1NS(=O)(=O)c1ccc2onc(C(=O)N3CCCCC3)c2c1` [L995-0405], the figure is 21.3%.

With `c1ccc2c(c1)CN(c1ncnc3sccc13)CCN2` [T6768300], the Emax at 10 µM stood at 34.4%. `CCn1nccc1-c1csc(S(=O)(=O)Nc2ccccc2OC)c1` [L924-1088]: the Emax at 10 µM amounted to 78.5%. Still for that read-out and setting: as for `Cc1ccc(F)cc1NC(=O)Cc1nn(C)c(=O)c2ccccc12` [T6302989], the figure is 40.5%.

For `CCOc1ccc(C2(O)C[N+](c3cc(OC)ccc3OC)=C3CCCCCN32)cc1` (centres unmarked) [K404-0860], the Emax at 10 µM amounted to 57.9%. The same measure, in the same setting: for `O=S(=O)(Nc1ccc(O)c(Cl)c1)c1ccc2ccccc2c1` [T0517-8939] the value was 76.8%; for `Cc1ccc(C(=O)N2CCCC(Nc3ncnc4c3CCC4)C2)cn1` (centres unmarked) [T636-2144], 0%. Still for that read-out and setting: for `CC(=O)N1CCCc2cc(S(=O)(=O)NC(c3ccccc3)C(C)C)ccc21` (centres unmarked) [T6067366] the value was 0%; for `CC1c2ccsc2CCN1c1ncnc2sccc12` (centres unmarked) [T5630309], 72.2%; for `Cc1cccc([N+]2=C3SCCCN3C(O)(c3ccc(Cl)cc3)C2)c1` (centres unmarked) [F0522-0533], 55.7%. On to `CC(=O)c1cccc(NC(=O)C(C)Sc2ncnc3ccsc23)c1` (centres unmarked) [T5627721], for which the Emax at 10 µM amounted to 72.4%.

For `CC(=O)N1CCCc2cc(S(=O)(=O)NCc3ccccc3)ccc21` [G855-0210], the Emax at 10 µM was found to be 20.6%. The same measure, in the same setting: for `Cn1nc(CC(=O)Nc2cccc(C(=O)NC3CC3)c2)c2ccccc2c1=O` [T5543110] the value was 39.1%.

As to `COc1ccccc1Nc1nc(N2CCOCC2)c2ccccc2n1` [F3007-0009], the Emax at 10 µM worked out at 19.8%. Still for that read-out and setting: for `Cc1ccc(CN2CCN(c3ncnc4c3CCC4)CC2)o1` [T636-1937] the value was 74%. Still for that read-out and setting: for `O=C(Cc1cccc(F)c1)N1CCC(Nc2ncnc3c2CCC3)C1` (centres unmarked) [T636-2360] the value was 44%.

For `CN1CCC(OCCCNc2ncnc3c2CCC3)CC1` [T636-0181], the Emax at 10 µM stood at 22.8%. Consider `Cc1oc2ncnc(N3CCCC(C(=O)NCc4ccccn4)C3)c2c1C` (centres unmarked) [F228-0350], for which the Emax at 10 µM was found to be 95.8%. The same measure, in the same setting: as for `O=S(=O)(Nc1ccc2[nH]ncc2c1)c1ccc(C(F)(F)F)cc1` [T5653029], the figure is 36.2%; as for `COc1cccc(CNc2ncnc3c2CCC3)c1` [T636-0134], 75.1%. Regarding `COc1ccccc1[N+]1=C2CCCCCN2C(O)(c2ccc(F)cc2)C1` (centres unmarked) [F0524-0611], the Emax at 10 µM was 53.4%. Same read-out and setting: for `O=S(=O)(c1ccc(F)cc1)N1CCSC1c1ccccc1Cl` (centres unmarked) [4052-4279] the value was 15.6%; for `O=S(=O)(Nc1ccc(F)c(Cl)c1)c1ccc2ccccc2c1` [T5231424], 67.3%; for `Cc1cc(S(=O)(=O)NCc2ccncc2)c(Cl)cc1Cl` [T5581430], 47.2%. Same read-out and setting: as for `CCOc1ccc(C2(O)C[N+](c3ccccc3OC)=C3CCCCN32)cc1` (centres unmarked) [K404-0673], the figure is 93.1%; as for `O=S(=O)(Nc1ccc2[nH]ncc2c1)c1ccc(Cl)cc1F` [T5436375], 0%. Same read-out and setting: for `COc1ccc(OC)c([N+]2=C3CCCCCN3C(O)(c3ccc(C)cc3)C2)c1` (centres unmarked) [K404-0855] the value was 58.5%.

The assay is the same for the next values; noted with them: Mus musculus, Astrocyte, 1.5 h; Prestwick hits; 10 uM, 90 min; activity relative to positive control CCCP 2 uM; read-out: Score.
For `Clc1ccc(COC(Cn2ccnc2)c2ccc(Cl)cc2Cl)c(Cl)c1` (centres unmarked) [Miconazole], the Emax at 10 µM came out at 7.35%.

Take `Clc1ccc2c(c1)CCc1cccnc1C2=C1CCNCC1` [Desloratadine]: the Emax at 10 µM came to 6.08%.

In the case of `CCCCOc1cc(C(=O)NCCN(CC)CC)c2ccccc2n1` [Dibucaine], the Emax at 10 µM is 6.12%.

The same assay, now with this note: Mus musculus, Astrocyte, 1.5 h; Prestwick hits; 10 uM, 90 min; relative to positive control CCCP 2 uM; read-out: HTS Score (lactate).
`Clc1ccc(COC(Cn2ccnc2)c2ccc(Cl)cc2Cl)c(Cl)c1` (centres unmarked) [Miconazole]: the Emax at 10 µM amounted to 7.3%.

Consider `Clc1ccc2c(c1)CCc1cccnc1C2=C1CCNCC1` [Desloratadine], for which the Emax at 10 µM was determined as 6.1%. Still for that read-out and setting: for `CCCCOc1cc(C(=O)NCCN(CC)CC)c2ccccc2n1` [Dibucaine] the value was 6.1%.
